In PMC10544575, “Inhibitory mechanism of vortioxetine on CYP450 enzymes in human and rat liver microsomes” (Frontiers in Pharmacology, 2023):
Like-named read-outs stand apart in the source and are kept apart here.

Columns and labels:
CYP3A = test: IC50 of vortioxetine on CYP3A (midazolam) in RLMs; format: in vitro ADME; details: rat, rat liver microsomes, probe midazolam
Protocol: (§1) The components of the incubation system were as follows: 0.20 mg/mL HLMs or 0.20 mg/mL RLMs, 0.1 M Tris-HCl, vortioxetine, and the probe substrates of each enzyme. In the study of Km’s (Michaelis–Menten constant) experiment, midazolam (1, 2, 5, 10, 20, 50 and 100 μM in HLMs and RLMs) corresponded to CYP3A4/3A; bupropion (10, 20, 50, 100, 200, 500, 1,000 and 2000 μM in HLMs; 1, 2, 5, 10, 20, 50, 100 and 200 μM in RLMs) corresponded to CYP2B6/2B; amodiaquine (5, 10, 20, 50, 100 and 200 μM in HLMs; 10, 20, 50, 100, 200, 500 μM in RLMs) corresponded to CYP2C8/CYP2C-1; losartan (1, 2, 5, 10, 20, 50, 100, 200 μM in HLMs; 10, 20, 50, 100, 200, 500 and 1,000 μM in RLMs) corresponded to CYP2C9/CYP2C-2; mephenytoin (20, 50, 100, 200, 500 and 1,000 μM in HLMs; 5, 10, 20, 50, 100, 200, 500 and 1,000 μM in RLMs) corresponded to CYP2C19/CYP2C-3; and dextromethorphan (1, 2, 5, 10, 20, 50 and 100 μM in HLMs and RLMs) corresponded to CYP2D6/CYP2D. […]
(§2) All experiments results were detected by UPLC-MS/MS, which equipped with a Waters Acquity UPLC system (Milford, MA, United States) and a Waters Xevo TQ-S triple quadrupole tandem mass spectrometer with an electrospray ionization source (Milford, MA, United States). […]
(§3) IC50 values and enzyme kinetic parameters were calculated by Graphpad Prism 6.0 (GraphPad software Inc., CA, United States). […] Data for each experiment were expressed as mean ± SD (n = 3).

[1] = no reference given; cited from earlier work
CYP2C9 = CYP2C9 (Homo sapiens, UniProt P11712); test: IC50 of vortioxetine on CYP2C9 (losartan) in HLMs; format: in vitro ADME; set-up: 0.20 mg/mL HLMs; from tissue; host or cells: human liver microsomes
Protocol: as §1, §2, §3

CYP2C8 = molecular target: T1, CYP2C8 (Homo sapiens, UniProt P10632); test: Reversible inhibition kinetics (Lineweaver-Burk), CYP2C8 in HLMs; format: in vitro ADME; set-up: 0.20 mg/mL HLMs or 0.20 mg/mL RLMs; from tissue; host or cells: human liver microsomes
T1 sequence (P10632 1-490): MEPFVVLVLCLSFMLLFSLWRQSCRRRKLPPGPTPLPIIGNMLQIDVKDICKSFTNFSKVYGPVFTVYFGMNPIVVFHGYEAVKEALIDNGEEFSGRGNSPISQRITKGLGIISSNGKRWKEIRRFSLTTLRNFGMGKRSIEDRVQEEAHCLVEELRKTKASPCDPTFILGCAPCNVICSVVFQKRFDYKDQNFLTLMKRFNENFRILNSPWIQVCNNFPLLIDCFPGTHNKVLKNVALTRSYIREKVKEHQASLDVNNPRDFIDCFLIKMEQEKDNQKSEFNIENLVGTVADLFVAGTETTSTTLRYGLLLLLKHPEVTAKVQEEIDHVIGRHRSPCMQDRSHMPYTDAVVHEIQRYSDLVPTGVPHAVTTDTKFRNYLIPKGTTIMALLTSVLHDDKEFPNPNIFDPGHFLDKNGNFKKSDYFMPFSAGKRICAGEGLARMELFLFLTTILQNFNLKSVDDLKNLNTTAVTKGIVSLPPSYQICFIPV
Protocol: The components of the incubation system were as follows: 0.20 mg/mL HLMs or 0.20 mg/mL RLMs, 0.1 M Tris-HCl, vortioxetine, and the probe substrates of each enzyme. In the study of Km’s (Michaelis–Menten constant) experiment, midazolam (1, 2, 5, 10, 20, 50 and 100 μM in HLMs and RLMs) corresponded to CYP3A4/3A; bupropion (10, 20, 50, 100, 200, 500, 1,000 and 2000 μM in HLMs; 1, 2, 5, 10, 20, 50, 100 and 200 μM in RLMs) corresponded to CYP2B6/2B; amodiaquine (5, 10, 20, 50, 100 and 200 μM in HLMs; 10, 20, 50, 100, 200, 500 μM in RLMs) corresponded to CYP2C8/CYP2C-1; losartan (1, 2, 5, 10, 20, 50, 100, 200 μM in HLMs; 10, 20, 50, 100, 200, 500 and 1,000 μM in RLMs) corresponded to CYP2C9/CYP2C-2; mephenytoin (20, 50, 100, 200, 500 and 1,000 μM in HLMs; 5, 10, 20, 50, 100, 200, 500 and 1,000 μM in RLMs) corresponded to CYP2C19/CYP2C-3; and dextromethorphan (1, 2, 5, 10, 20, 50 and 100 μM in HLMs and RLMs) corresponded to CYP2D6/CYP2D. After 5.0 min of preincubation in the shaking water bath, the reaction was started with the addition of 1.0 mM NADPH. The incubated temperature at 37°C for 30 min. After the incubation, the enzyme reaction was stopped by cooling at −80°C, and 200 μL of acetonitrile and 20 μL of internal standard diazepam (200 ng/mL) were added for protein precipitation. The solution was fully vortexed and centrifuged at 13,000 × rpm for 10 min, and the supernatant was collected for data analysis by UPLC-MS/MS.
The inhibitory mechanism of the inhibitor on the enzyme was generally used by different concentrations of the inhibitor against different concentrations of the probe substrate. The concentrations of the inhibitor and the concentrations of probe substrates in the experiment were estimated based on IC50 and Km values, respectively.
In HLMs, the concentrations of the substrates midazolam, bupropion, amodiaquine, losartan, mephenytoin, and dextromethorphan were 1, 2, 4, 8 μM; 10, 20, 40, 80 μM; 0.8, 1.5, 3, 6 μM; 2, 4, 8, 16 μM; 20, 45, 90, 180 μM; 2.5, 5, 10, 20 μM, respectively. Corresponding to the concentration of vortioxetine were 2, 4, 9, 18 μM; 2, 4, 8, 16 μM; 4, 8, 15, 30 μM; 5, 10, 25, 50 μM; 0.6, 1.2, 2.5, 5 μM; 4.5, 9, 18, 36 μM, respectively.
All experiments results were detected by UPLC-MS/MS, which equipped with a Waters Acquity UPLC system (Milford, MA, United States) and a Waters Xevo TQ-S triple quadrupole tandem mass spectrometer with an electrospray ionization source (Milford, MA, United States). The chromatographic separation was performed on a Waters ACQUITY UPLC BEH C18 column (2.1 × 50 mm, 1.7 μm, Waters Corp.) at 40°C. The mobile phase was consisted of acetonitrile (A) and 0.1% formic acid in water (B). The gradient elution at a flow rate of 0.4 mL/min was conducted as follows: 0–0.5 min, 10% A; 0.5–1.0 min, 10%–90% A; 1.0–2.0 min, 90% A; 2.0–2.1 min, 90%–10% A, and 2.1–3.0 min, 10% A. The relevant analysis parameters were shown in Table 1.
IC50 values and enzyme kinetic parameters were calculated by Graphpad Prism 6.0 (GraphPad software Inc., CA, United States). Lineweaver-Burk Plot was used to determine inhibitor patterns. Dixon plots of Ki values were obtained from the slope of the nonlinear regression line in the Lineweaver-Burk plot as a function of different inhibitor concentrations, while secondary plots for αKi were obtained from the y-intercept of the nonlinear regression line in Lineweaver-Burk Plot versus concentration of different inhibitors. Data for each experiment were expressed as mean ± SD (n = 3).

Chain of CYP2C9 (P11712 whole entry): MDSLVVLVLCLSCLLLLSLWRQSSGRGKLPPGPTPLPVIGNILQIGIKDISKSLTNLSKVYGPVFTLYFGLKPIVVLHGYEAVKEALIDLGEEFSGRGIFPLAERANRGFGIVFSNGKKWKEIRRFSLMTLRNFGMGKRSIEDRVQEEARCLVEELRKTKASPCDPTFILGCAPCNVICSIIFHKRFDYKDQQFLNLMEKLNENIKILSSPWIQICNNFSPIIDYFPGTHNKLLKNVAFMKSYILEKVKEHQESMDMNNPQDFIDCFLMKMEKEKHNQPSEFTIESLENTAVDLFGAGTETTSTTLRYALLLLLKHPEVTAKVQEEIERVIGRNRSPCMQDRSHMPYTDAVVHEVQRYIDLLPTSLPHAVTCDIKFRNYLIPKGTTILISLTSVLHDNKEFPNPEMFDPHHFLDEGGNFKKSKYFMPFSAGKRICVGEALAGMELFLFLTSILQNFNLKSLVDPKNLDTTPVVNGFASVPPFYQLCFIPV

IC50 at 30 min (CYP3A; RLMs 0.20 mg/mL, midazolam at Km, 37°C, 30 min, read-out: IC50): 16.4 µM
IC50 at 30 min (CYP3A; inhibitory effect (strength judged by IC50), RLMs): > 10 µM
IC50 (CYP2C9; HLMs 0.20 mg/mL, losartan at Km, 37°C, 30 min, read-out: IC50): 23 µM
IC50 (CYP2C9; inhibitory effect (strength judged by IC50), HLMs): > 10 µM
Ki (CYP2C8; amodiaquine): 6.96 µM
α (CYP2C8; amodiaquine): 1.94
Inhibition type (CYP2C8; amodiaquine, Lineweaver-Burk plot): noncompetitive inhibition
αKi (CYP2C8; amodiaquine, secondary plot of y-intercepts): 13.48 µM
Ki at 30 min (CYP2C8; human, human liver microsomes, probe amodiaquine): 2.96 µM
Compound: Cc1ccc(Sc2ccccc2N2CCNCC2)c(C)c1 [vortioxetine]
plasma protein (binding) [1]: 99%
